Source: article PMC2642990, “The Glycogen-Binding Domain on the AMPK β Subunit Allows the Kinase to Act as a Glycogen Sensor” (Cell Metabolism, 2009)

Tests used:
[1] = system: dephosphorylation of purified rat liver AMPK by protein phosphatase-2Cα (PPM1A); experiment: dephosphorylation of rat liver AMPK by PP2Cα, western blotting of pThr-172; format: biochemical; conditions: 1 mM oligosaccharide
Description: (§1) Figure 7 Effect of Oligosaccharide Number 5, See Figure 6, on Dephosphorylation of AMPK by PP2Cα and on Phosphorylation by CaMKKβ and LKB1 (A) Effect of oligosaccharide on dephosphorylation by PP2Cα. Rat liver AMPK was incubated with PP2Cα in the presence and absence of 1 mM oligosaccharide; at various times, levels of total α subunit and phosphorylation on Thr-172 were assessed by western blotting. (B) Quantification of results as in (A); means ± SEM of two experiments. (C) Effect of oligosaccharide on phosphorylation by CaMKKβ. Rat liver AMPK was dephosphorylated using PP1, okadaic acid was added to inhibit the phosphatase, and the protein was incubated with MgATP and CaMKKβ in the presence and absence of 1 mM oligosaccharide. At various times, levels of total α subunit and of phosphorylation on Thr-172 were assessed by western blotting. (D) Quantification of results as in (C); means ± SEM (n = 2). (E) Time course of effect of oligosaccharide on phosphorylation by LKB1, performed as in (C) but with LKB1 in place of CaMKKβ. (F) Effect of oligosaccharide on phosphorylation of a synthetic peptide substrate of LKB1 (mean ± SD; n = 2). (G) Inhibition of AMPK by bovine liver glycogen, a phosphorylase limit dextrin, and a mock-treated sample. IC50 values were determined as in Figure 2A and curves generated from the best-fit parameters. […]

[2] = system: dephosphorylation of AMPK by protein phosphatase-1; experiment: dephosphorylation of AMPK by catalytic subunit of protein phosphatase-1; format: biochemical, rat; conditions: data not shown
Description: (§2) The inhibitory effects observed to this point represent allosteric inhibition, i.e., direct effects on the activity of the AMPK kinase domain of carbohydrate binding at a different site, i.e., the GBD on the β subunit. It was important to establish whether carbohydrates might also affect phosphorylation and dephosphorylation by upstream kinases and phosphatases. […] To confirm that the latter was not an effect on LKB1, we tested the effect of the oligosaccharide on phosphorylation of a synthetic peptide substrate, i.e., LKBtide ([Lizcano et al., 2004]).

[3] = system: phosphorylation of Thr-172 by CaMKKβ; experiment: phosphorylation of Thr-172 of rat liver AMPK by CaMKKβ; format: biochemical; conditions: 1 mM oligosaccharide
Description: as §1

LKB1 = biological target: T1, LKB1 (Homo sapiens, UniProt Q15831); experiment: phosphorylation of synthetic peptide substrate LKBtide by LKB1; format: biochemical; conditions: 1 mM oligosaccharide
T1 sequence (Q15831 1-433): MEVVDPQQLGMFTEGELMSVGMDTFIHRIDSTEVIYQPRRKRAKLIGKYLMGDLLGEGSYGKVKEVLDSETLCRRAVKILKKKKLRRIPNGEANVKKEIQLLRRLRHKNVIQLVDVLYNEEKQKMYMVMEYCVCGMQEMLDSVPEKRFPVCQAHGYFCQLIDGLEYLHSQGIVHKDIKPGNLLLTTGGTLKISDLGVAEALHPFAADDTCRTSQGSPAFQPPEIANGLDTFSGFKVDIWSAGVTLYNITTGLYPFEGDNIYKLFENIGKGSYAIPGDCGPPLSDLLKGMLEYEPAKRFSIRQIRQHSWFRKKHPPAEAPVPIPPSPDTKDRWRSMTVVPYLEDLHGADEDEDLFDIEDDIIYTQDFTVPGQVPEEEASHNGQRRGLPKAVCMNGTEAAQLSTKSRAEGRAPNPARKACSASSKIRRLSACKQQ
T1 sequence (Q7RTN6 1-431 partner): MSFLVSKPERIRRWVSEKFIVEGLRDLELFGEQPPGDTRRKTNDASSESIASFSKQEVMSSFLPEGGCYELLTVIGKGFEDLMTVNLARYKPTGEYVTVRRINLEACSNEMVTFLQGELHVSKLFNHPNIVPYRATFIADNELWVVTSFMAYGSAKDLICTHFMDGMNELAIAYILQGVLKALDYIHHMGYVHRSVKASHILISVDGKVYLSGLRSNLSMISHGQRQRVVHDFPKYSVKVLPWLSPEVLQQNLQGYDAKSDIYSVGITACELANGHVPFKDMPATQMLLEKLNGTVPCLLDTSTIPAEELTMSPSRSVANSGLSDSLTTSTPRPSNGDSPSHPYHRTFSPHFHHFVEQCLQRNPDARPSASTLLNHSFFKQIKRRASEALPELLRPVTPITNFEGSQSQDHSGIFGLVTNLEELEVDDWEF
T1 sequence (Q9Y376 1-341 partner): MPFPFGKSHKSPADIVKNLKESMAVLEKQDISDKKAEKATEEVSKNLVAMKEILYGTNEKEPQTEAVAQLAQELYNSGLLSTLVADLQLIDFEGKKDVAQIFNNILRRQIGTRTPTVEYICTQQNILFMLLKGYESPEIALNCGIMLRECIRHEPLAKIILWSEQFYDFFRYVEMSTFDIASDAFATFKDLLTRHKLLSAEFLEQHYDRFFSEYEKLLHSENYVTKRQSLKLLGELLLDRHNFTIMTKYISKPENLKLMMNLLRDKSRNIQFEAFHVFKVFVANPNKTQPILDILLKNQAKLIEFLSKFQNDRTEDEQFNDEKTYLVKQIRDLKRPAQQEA
Description: as §2
Figure 7 Effect of Oligosaccharide Number 5, See Figure 6, on Dephosphorylation of AMPK by PP2Cα and on Phosphorylation by CaMKKβ and LKB1 (A) Effect of oligosaccharide on dephosphorylation by PP2Cα. Rat liver AMPK was incubated with PP2Cα in the presence and absence of 1 mM oligosaccharide; at various times, levels of total α subunit and phosphorylation on Thr-172 were assessed by western blotting. (B) Quantification of results as in (A); means ± SEM of two experiments. (C) Effect of oligosaccharide on phosphorylation by CaMKKβ. […] At various times, levels of total α subunit and of phosphorylation on Thr-172 were assessed by western blotting. (D) Quantification of results as in (C); means ± SEM (n = 2). […] IC50 values were determined as in Figure 2A and curves generated from the best-fit parameters. […]

[4] = system: phosphorylation of Thr-172 by LKB1; experiment: phosphorylation of Thr-172 of rat liver AMPK by LKB1; format: biochemical; conditions: 1 mM oligosaccharide
Description: as §1

CO[C@H]1O[C@H](CO[C@H]2O[C@H](CO)[C@@H](O[C@H]3O[C@H](CO)[C@@H](O)[C@H](O)[C@H]3O)[C@H](O)[C@H]2O)[C@@H](O)[C@H](O)[C@H]1O [Oligosaccharide 5, Glcα1→4Glcα1→6Glcα-OMe]
effect on dephosphorylation by PP2Cα [1]: no significant effect
effect on dephosphorylation by protein phosphatase-1 [2]: negative results
inhibition of phosphorylation of Thr-172 by CaMKKβ [3]: marked inhibition
inhibition of LKBtide phosphorylation (LKB1): no significant inhibition
extent of inhibition of phosphorylation of the rat liver αβγ complex by LKB1 ([4]; Figure 7E): essentially complete
inhibition of phosphorylation of Thr-172 by LKB1 ([4]; time course): marked inhibition
